Biological target: T1, MtbVKOR (Mycobacterium tuberculosis, UniProt I6X5W1)
T1 sequence (I6X5W1 1-210): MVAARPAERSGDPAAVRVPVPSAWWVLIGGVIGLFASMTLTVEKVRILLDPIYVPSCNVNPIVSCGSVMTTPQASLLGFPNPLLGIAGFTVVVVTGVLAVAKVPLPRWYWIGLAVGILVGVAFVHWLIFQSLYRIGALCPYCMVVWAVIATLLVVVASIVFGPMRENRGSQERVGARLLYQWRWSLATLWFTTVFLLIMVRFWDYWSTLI
Assay: HTS agar 384-well X-Gal assay, MtbVKOR-complemented E. coli dsbB null strain
Type: cell-based
Details: agar assay / re-test

`O=C1c2ccccc2C(=O)C1c1ccc(Br)cc1` [brominedione] was tested, and the “inhibition of MtbVKOR-dependent E. coli strain” value was “specific hit”.

— publication PMC4366281 (Nature chemical biology, 2015)
